Test results taken from patent US20240277697A1, “METHODS OF TREATING OR PREVENTING CONDITIONS ASSOCIATED WITH OPIATE WITHDRAWAL OR OPIATE RELAPSE” (Proniras Corporation, priority 2021, published 2024).
“And” between values parts separate entries of the source, which are not always exact repeats. Equal values may be shown once.

What was measured:
Assay type in all cases: in vivo
Long-Evans hooded rats = experiment: Oxycodone prime-induced reinstatement of extinguished oxycodone-reinforced lever pressing in rats; details: for mean (S.E.M.) active lever presses during reinstatement test session: 0.1 mg/kg s.c. oxycodone prime, vehicle 35.42
Experimental: Tezampanel was tested for its ability to reduce prime-induced reinstatement of extinguished, oxycodone-reinforced lever pressing in rats. Tezampanel doses of 0 (vehicle), 3, and 10 mg/kg were solubilized in a sterile water vehicle and administered i.p. 30 min prior to testing.
Adult male Long-Evans hooded rats (Envigo, Indianapolis, IN) weighing 275-300 g upon delivery were used. When not in testing, rats were individually housed in standard plastic rodent cages in a temperature-controlled (22° C.), AAALAC-accredited facility in which they had ad libitum access to water. The rats were allowed ad libitum rat chow for at least one week prior to the commencement of training, after which they were maintained at 320 g by controlled feedings. The rats were maintained on a 12-h/12-h reversed light-dark cycle (0600-1800 lights off) for the duration of the experiment, and they were trained and tested during the dark segment of this cycle.
Oxycodone self-administration training sessions were conducted five days per week (M-F) for 3 h daily. […] For the duration of the infusion, the tone sounded, and the stimulus lights above both levers flashed at 3 Hz.
Self-administration training continued until these criteria had been met: 1) at least 12 self-administration sessions had occurred; 2) at least 15 oxycodone infusions had occurred during each of the last four sessions; 3) at least 125 lifetime oxycodone infusions had been obtained; 4) at least 50 active lever responses on the last three days of self-administration had been emitted; and 5) there were no increasing or decreasing trends in active lever responses during the last three sessions of self-administration, after which extinction training began. Subsequently, twelve 3-h daily (Mon-Sun) extinction sessions were conducted. During extinction sessions, the house light was illuminated, and the levers were extended, but infusions were not administered nor did any other scheduled stimulus change occur (i.e., neither Sonalert® activations nor stimulus light illuminations occurred). Rats were considered eligible for reinstatement testing provided that the mean number of active-lever presses during the last 3 sessions of extinction was lower than the mean number of active-lever presses during the first 3 sessions of extinction.
A six-day incubation period during which rats remained in their home cages followed extinction training. Oxycodone prime reinstatement testing immediately followed this incubation period (i.e., on the seventh day following the 12th day of extinction training). Conditions during prime reinstatement testing were identical to those during extinction except that either 3 or 10 mg/kg Tezampanel or its vehicle was administered 30 min prior to the reinstatement test session. […]

[1] = tested on: oxycodone withdrawal in mice; experiment: Oxycodone-precipitated (naloxone) withdrawal in mice; details: mice chronically administered oxycodone
Experimental: (§1) Statistical analyses. All statistical analyses were performed using Prism 7 (GraphPad Software, La Jolla, CA, USA). Data were analyzed with analysis of variance (ANOVA) followed by the Tukey test for multiple comparisons when appropriate. To determine whether treatment with tezampanel affected oxycodone withdrawal, results with its dosage groups (i.e., chronic oxycodone+tezampanel) were compared to the chronic oxycodone+vehicle treatment group. To determine if tezampanel exerted effects by itself in non-dependent mice, results with the chronic saline+10 mg/kg tezampanel group were compared to the chronic saline+vehicle group. Student's T tests were used for analyzing locomotor activity results. Statistical significance was inferred for all tests when p<0.05.
FIGS. 3A-3D show total withdrawal signs, paw tremors, jumps, and percent body weight loss, respectively. ANOVA results indicated statistically significant total number of signs [F(5,42)=33.78; p<0.0001] (FIG. 3A), paw tremors [F(5,42)=10.85; p<0.0001] (FIG. 3B), jumps [F (5, 42)=22.77; p<0.0001] (FIG. 3C) and loss of body weight [F (5, 42)=4.694; p=0.0017] (FIG. 3D).

C57BL/6J mice = experiment: Mouse locomotor activity (photocell activity cages)
Experimental: Male experimentally naive C57BL/6J mice were placed into individual Omnitech photocell activity cages (28×16.5 cm) 30 min after intraperitoneal (i.p.) administration of either vehicle (n=6) or tezampanel at 10 mg/kg (n=7). Interruptions of the photocell beams (two banks of eight cells each) were then recorded for the next 30 min. Data were expressed as number of photocell interruptions.
as §1

[2] = 10 mg/kg intraperitoneal, naloxone on test day, vs oxycodone+vehicle

In the case of `O=C(O)[C@@H]1C[C@H]2C[C@@H](CCc3nn[nH]n3)CC[C@H]2CN1` [Tezampanel, (3S,4aR,6R,8aR)-6-[2-(1H-tetrazol-5-yl)ethyl]decahydroisoquinoline-3-carboxylic acid], the “mean (S.E.M.) active lever presses during reinstatement test session” value (Long-Evans hooded rats; 3 mg/kg i.p. 30 min prior) is reported as 15.55 (+3.022) and 15.55 (±3.022), the “mean (S.E.M.) active lever presses during reinstatement test session” value (Long-Evans hooded rats; 10 mg/kg i.p. 30 min prior) is reported as 13.00 (+2.537) and 13.00 (±2.537) and the “reinstated response levels relative to vehicle-control” value (Long-Evans hooded rats; 3 and 10 mg/kg i.p.) is reported as “significantly decreased”. For the same molecule, the “reinstatement relative to last extinction session” value (Long-Evans hooded rats; 3 and 10 mg/kg i.p.) was “prevented oxycodone prime injections from eliciting effective reinstatement”, the jumps [1, 2] was “attenuated” and the paw tremors [1, 2] was “attenuated”. For the same molecule, the “total number of withdrawal signs” value [1, 2] was “attenuated”, the “withdrawal-induced body weight loss” value ([1]; at the doses tested) was “failed to attenuate” and the “observational comments on behaviour” value (C57BL/6J mice; 10 mg/kg dose, mice) was “slowed, unsteady locomotion and low activity rates”. For the same molecule, the “No. of Interruptions (±S.E.M.)” value (C57BL/6J mice; 10 mg/kg intraperitoneal, 30 min before, photocell interruptions over 30 min, n=7) was 663.7 ± 87.0 and the “locomotor activity compared to vehicle-treated group” value (C57BL/6J mice; 10 mg/kg intraperitoneal, naive mice, p<0.0001) was “significantly reduced”.
